Laboratory results published in paper PMC5572114, “Guanidine N-methylation by BlsL Is Dependent on Acylation of Beta-amine Arginine in the Biosynthesis of Blasticidin S” (Frontiers in Microbiology, 2017).

Target: T1, BlsL (Streptomyces griseochromogenes, UniProt Q841K2)
T1 construct: gene J2Z21_009042; full length, His-tagged, pET28a NdeI/EcoRI, E. coli BL21(DE3); gene from cluster plasmid pJTU1780; primers encode N-terminus MEQSTGA, C-terminus CFYKD
Test: SAM released from boiled purified BlsL; HPLC and MS/MS
Type: binding
Settings: co-purified endogenous ligand; methyl donor

T1 sequence (Q841K2 1-213): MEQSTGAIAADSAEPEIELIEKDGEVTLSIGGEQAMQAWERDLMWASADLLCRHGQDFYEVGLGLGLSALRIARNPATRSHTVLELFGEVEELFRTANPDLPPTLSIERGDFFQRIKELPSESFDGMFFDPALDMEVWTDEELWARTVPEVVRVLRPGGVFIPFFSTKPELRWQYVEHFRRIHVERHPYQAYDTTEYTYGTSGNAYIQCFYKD

## C[S+](CC[C@H](N)C(=O)O)C[C@H]1O[C@@H](n2cnc3c(N)ncnc32)[C@H](O)[C@@H]1O (stereo partly shown) [SAM]
  SAM released from boiled purified BlsL; HPLC and MS/MS: Association of SAM with BlsL was confirmed by HPLC as well as MS/MS fragmentation
